Reference: patent US9480259B2, “Pyrazolopyrans having herbicidal and pharmaceutical properties” (BASF SE, priority 2012, dated 2016)

Biological target: Arabidopsis thaliana SHMT
Test: SHMT activity assay (ED50 SHMT), coupled with N5,N10-CH2-THF dehydrogenase, NADH at 340 nm
Format: biochemical
In short: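 His-tagged SHMT purified on Ni-NTA. NADH formation followed at 340 nm for 30 min; ED50 from inhibition of initial velocity.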

[1] = Arabidopsis thaliana SHMT enzyme assay, values given as upper bounds
[2] = inhibition of initial velocity of Arabidopsis thaliana SHMT

SMILES	EC50 [1]	EC50 [2]
Cc1n[nH]c2c1C(c1cc(C#N)cc(N(C)C(=O)c3cccc(C(=O)O)c3)c1)(C(C)C)C(C#N)=C(N)O2 (centres unmarked) [Compound 2.717]	< 0.1 µM	
Cc1n[nH]c2c1C(c1cc(C#N)cc(N(C)C(=O)CCc3nnn[nH]3)c1)(C1CCC1)C(C#N)=C(N)O2 (centres unmarked) [Compound 2.718]	< 0.1 µM	
CCOC(=O)CS(=O)(=O)N(C)c1cc(C#N)cc(C2(C3CCC3)C(C#N)=C(N)Oc3[nH]nc(C)c32)c1 (centres unmarked) [Compound 2.719]	< 0.1 µM	
Cc1n[nH]c2c1C(c1cc(C#N)cc(N(C)C(=O)Cc3nnn[nH]3)c1)(C(C)C)C(C#N)=C(N)O2 (centres unmarked) [Compound 2.721]	< 0.1 µM	
Cc1n[nH]c2c1C(c1cc(C#N)cc(N(C)C(=O)CCCc3nnn[nH]3)c1)(C(C)C)C(C#N)=C(N)O2 (centres unmarked) [Compound 2.722]	< 0.1 µM	
COC(=O)CCS(=O)(=O)N(C)c1cc(C#N)cc(C2(C3CCC3)C(C#N)=C(N)Oc3[nH]nc(C)c32)c1 (centres unmarked) [Compound 2.723]	< 0.1 µM	
Cc1n[nH]c2c1C(c1cc(C#N)cc(N(C)S(=O)(=O)CC#N)c1)(C1CCC1)C(C#N)=C(N)O2 (centres unmarked) [Compound 2.724]	< 0.1 µM	
CCOC(=O)CS(=O)(=O)N(C)c1cc(C#N)cc(C2(C(C)C)C(C#N)=C(N)Oc3[nH]nc(C)c32)c1 (centres unmarked) [Compound 2.725]	< 0.1 µM	
COC(=O)CCS(=O)(=O)N(C)c1cc(C#N)cc(C2(C(C)C)C(C#N)=C(N)Oc3[nH]nc(C)c32)c1 (centres unmarked) [Compound 2.726]	< 0.1 µM	
Cc1n[nH]c2c1C(c1cc(C#N)cc(N(C)C(=O)CCCc3nnn[nH]3)c1)(C1CCC1)C(C#N)=C(N)O2 (centres unmarked) [Compound 2.727]	< 0.1 µM	
Cc1n[nH]c2c1C(c1cc(Br)cc(N(C)C(=O)Cc3nnn[nH]3)c1)(C1CCC1)C(C#N)=C(N)O2 (centres unmarked) [Compound 2.730]	< 0.01 µM	
Cc1n[nH]c2c1C(c1cc(C#N)cc(N(C)S(=O)(=O)CC(=O)O)c1)(C1CCC1)C(C#N)=C(N)O2 (centres unmarked) [Compound 2.731]	< 0.1 µM	
Cc1n[nH]c2c1C(c1cc(C#N)cc(N(C)S(=O)(=O)CC(=O)O)c1)(C(C)C)C(C#N)=C(N)O2 (centres unmarked) [Compound 2.732]	< 0.1 µM	
Cc1n[nH]c2c1C(c1cc(C#N)cc(NS(=O)(=O)C(F)(F)F)c1)(C1CCC1)C(C#N)=C(N)O2 (centres unmarked) [Compound 2.733]	< 0.1 µM	
Cc1n[nH]c2c1C(c1ccc(CCc3nnn[nH]3)c(C#N)c1)(C(C)C)C(C#N)=C(N)O2 (centres unmarked) [Compound 2.734]	< 0.1 µM	
Cc1n[nH]c2c1C(c1cc(Cc3nnn[nH]3)cc(-c3nnn[nH]3)c1)(C(C)C)C(C#N)=C(N)O2 (centres unmarked) [Compound 2.735]	< 10 µM	
Cc1n[nH]c2c1C(c1ccc(CCC#N)c(-c3nnn[nH]3)c1)(C(C)C)C(C#N)=C(N)O2 (centres unmarked) [Compound 2.736]	< 1 µM	
Cc1n[nH]c2c1C(c1cc(C#N)cc(Cc3nnn[nH]3)c1)(C(C)C)C(C#N)=C(N)O2 (centres unmarked) [Compound 2.738]	< 0.1 µM	
CCC1(c2cc(F)c(F)cc2F)C(C#N)=C(N)Oc2[nH]nc(C)c21 (centres unmarked) [Compound 3.3]		< 10 µM
CCC1(c2cc(F)cc(F)c2F)C(C#N)=C(N)Oc2[nH]nc(C)c21 (centres unmarked) [Compound 3.4]		< 10 µM
Cc1n[nH]c2c1C(c1ccc(-c3cccs3)s1)(C1CCC1)C(C#N)=C(N)O2 (centres unmarked) [Compound 4.1]		< 0.01 µM
Cc1n[nH]c2c1C(c1ccc(-c3ccco3)s1)(C1CCC1)C(C#N)=C(N)O2 (centres unmarked) [Compound 4.3]		< 0.01 µM
Cc1n[nH]c2c1C(c1cc(Cl)c3c(c1)OCCO3)(C1CCC1)C(C#N)=C(N)O2 (centres unmarked) [Compound 4.5]		< 0.01 µM
Cc1n[nH]c2c1C(c1ccc(-c3cccc(Cl)c3)s1)(C1CCC1)C(C#N)=C(N)O2 (centres unmarked) [Compound 4.6]		< 0.01 µM
Cc1n[nH]c2c1C(c1cc3cc(Cl)ccc3o1)(C1CCC1)C(C#N)=C(N)O2 (centres unmarked) [Compound 4.7]		< 0.01 µM

SMILES	EC50 [1]	EC50 [2]
Cc1n[nH]c2c1C(c1ccc(-c3ccc(F)cc3)s1)(C1CCC1)C(C#N)=C(N)O2 (centres unmarked) [Compound 4.8]		< 0.01 µM
Cc1n[nH]c2c1C(c1cc3cc(Cl)ccc3s1)(C1CCC1)C(C#N)=C(N)O2 (centres unmarked) [Compound 4.9]		< 0.01 µM
Cc1n[nH]c2c1C(c1ccc(-c3ccccc3)s1)(C1CCC1)C(C#N)=C(N)O2 (centres unmarked) [Compound 4.10]		< 0.01 µM
Cc1n[nH]c2c1C(c1cncc(Cl)c1)(C1CCC1)C(C#N)=C(N)O2 (centres unmarked) [Compound 4.11]		< 0.01 µM
Cc1n[nH]c2c1C(c1cc(Cl)c3c(c1)CCO3)(C1CCC1)C(C#N)=C(N)O2 (centres unmarked) [Compound 4.12]		< 0.01 µM
Cc1ccc(-c2ccc(C3(C4CCC4)C(C#N)=C(N)Oc4[nH]nc(C)c43)s2)cc1 (centres unmarked) [Compound 4.13]		< 0.01 µM
Cc1n[nH]c2c1C(c1ccc(-c3cccc(F)c3)s1)(C1CCC1)C(C#N)=C(N)O2 (centres unmarked) [Compound 4.14]		< 0.01 µM
Cc1n[nH]c2c1C(c1cc(Cl)c3c(c1)OCCO3)(C(C)C)C(C#N)=C(N)O2 (centres unmarked) [Compound 4.15]		< 0.01 µM
Cc1n[nH]c2c1C(c1cc(-c3cccs3)cs1)(C1CCC1)C(C#N)=C(N)O2 (centres unmarked) [Compound 4.16]		< 0.01 µM
Cc1n[nH]c2c1C(c1ccc(-c3ccccc3F)s1)(C1CCC1)C(C#N)=C(N)O2 (centres unmarked) [Compound 4.17]		< 0.01 µM
Cc1n[nH]c2c1C(c1ccc3c(c1)C(F)(F)CCO3)(C1CCC1)C(C#N)=C(N)O2 (centres unmarked) [Compound 4.18]		< 0.01 µM
Cc1ccc2cc(C3(C4CCC4)C(C#N)=C(N)Oc4[nH]nc(C)c43)cc(C(F)(F)F)c2n1 (centres unmarked) [Compound 4.19]		< 0.01 µM
Cc1n[nH]c2c1C(c1ccc(-c3ccc(Cl)cc3)s1)(C1CCC1)C(C#N)=C(N)O2 (centres unmarked) [Compound 4.20]		< 0.01 µM
Cc1n[nH]c2c1C(c1cc3cc(C(F)(F)F)ccc3s1)(C1CCC1)C(C#N)=C(N)O2 (centres unmarked) [Compound 4.22]		< 0.01 µM
Cc1n[nH]c2c1C(c1cc(F)c3c(c1)C=CC(C)(C)O3)(C1CCC1)C(C#N)=C(N)O2 (centres unmarked) [Compound 4.23]		< 0.01 µM
Cc1n[nH]c2c1C(c1cc(-c3ccccc3)cs1)(C1CCC1)C(C#N)=C(N)O2 (centres unmarked) [Compound 4.24]		< 0.01 µM
Cc1n[nH]c2c1C(c1ccc3c(c1)OC(F)(F)O3)(C1CCC1)C(C#N)=C(N)O2 (centres unmarked) [Compound 4.25]		< 0.01 µM
Cc1n[nH]c2c1C(c1ccc(-c3ccc(C(F)(F)F)cc3)s1)(C1CCC1)C(C#N)=C(N)O2 (centres unmarked) [Compound 4.26]		< 0.01 µM
COC(=O)c1ccc(C2(C3CCC3)C(C#N)=C(N)Oc3[nH]nc(C)c32)s1 (centres unmarked) [Compound 4.27]		< 0.01 µM
Cc1n[nH]c2c1C(c1cc3ccccc3s1)(C1CCC1)C(C#N)=C(N)O2 (centres unmarked) [Compound 4.28]		< 0.01 µM
Cc1cccc(-c2ccc(C3(C4CCC4)C(C#N)=C(N)Oc4[nH]nc(C)c43)s2)c1 (centres unmarked) [Compound 4.29]		< 0.01 µM
COC(=O)c1csc(C2(C3CCC3)C(C#N)=C(N)Oc3[nH]nc(C)c32)c1 (centres unmarked) [Compound 4.30]		< 0.01 µM
CC1(C)C=Cc2cc(C3(C4CCC4)C(C#N)=C(N)Oc4[nH]ncc43)cc(F)c2O1 (centres unmarked) [Compound 4.31]		< 0.01 µM
Cc1n[nH]c2c1C(c1ccc3c(c1)CCO3)(C1CCC1)C(C#N)=C(N)O2 (centres unmarked) [Compound 4.32]		< 0.01 µM
Cc1n[nH]c2c1C(c1cc(-c3ccsc3)cs1)(C1CCC1)C(C#N)=C(N)O2 (centres unmarked) [Compound 4.33]		< 0.01 µM

SMILES	EC50 [1]	EC50 [2]
Cc1n[nH]c2c1C(c1ccc(-c3ccccc3C(F)(F)F)s1)(C1CCC1)C(C#N)=C(N)O2 (centres unmarked) [Compound 4.34]		< 0.01 µM
Cc1n[nH]c2c1C(c1cncc(C(F)(F)F)c1)(C1CCC1)C(C#N)=C(N)O2 (centres unmarked) [Compound 4.35]		< 0.01 µM
COc1ccc2cc(C3(C4CCC4)C(C#N)=C(N)Oc4[nH]nc(C)c43)ccc2c1 (centres unmarked) [Compound 4.36]		< 0.01 µM
Cc1n[nH]c2c1C(c1nc3ccc(Cl)cc3o1)(C1CCC1)C(C#N)=C(N)O2 (centres unmarked) [Compound 4.37]		< 0.01 µM
Cc1n[nH]c2c1C(c1cc3c(C(F)(F)F)cccc3s1)(C1CCC1)C(C#N)=C(N)O2 (centres unmarked) [Compound 4.38]		< 0.01 µM
Cc1n[nH]c2c1C(c1cc(C(F)(F)F)c3nc(C(=O)O)ccc3c1)(C1CCC1)C(C#N)=C(N)O2 (centres unmarked) [Compound 4.39]		< 0.01 µM
Cc1n[nH]c2c1C(c1cc(-c3ccco3)cs1)(C1CCC1)C(C#N)=C(N)O2 (centres unmarked) [Compound 4.41]		< 0.01 µM
Cc1n[nH]c2c1C(c1ccc3c(c1)nnn3C(C)C)(C1CCC1)C(C#N)=C(N)O2 (centres unmarked) [Compound 4.42]		< 0.01 µM
Cc1n[nH]c2c1C(c1ccc(-c3cccc(C(F)(F)F)c3)s1)(C1CCC1)C(C#N)=C(N)O2 (centres unmarked) [Compound 4.43]		< 0.01 µM
Cc1n[nH]c2c1C(c1ccc3c(c1)OCO3)(C1CCC1)C(C#N)=C(N)O2 (centres unmarked) [Compound 4.44]		< 0.01 µM
Cc1n[nH]c2c1C(c1nc3c(Cl)cccc3s1)(C1CCC1)C(C#N)=C(N)O2 (centres unmarked) [Compound 4.45]		< 0.01 µM
Cc1n[nH]c2c1C(c1nc3ccccc3o1)(C1CCC1)C(C#N)=C(N)O2 (centres unmarked) [Compound 4.46]		< 0.01 µM
Cc1n[nH]c2c1C(c1cc(-c3cccc(F)c3)cs1)(C1CCC1)C(C#N)=C(N)O2 (centres unmarked) [Compound 4.47]		< 0.1 µM
Cc1n[nH]c2c1C(c1ccc3[nH]c(C(F)(F)F)nc3c1)(C1CCC1)C(C#N)=C(N)O2 (centres unmarked) [Compound 4.48]		< 0.1 µM
Cc1n[nH]c2c1C(c1ccc3c(c1)nnn3C)(C1CCC1)C(C#N)=C(N)O2 (centres unmarked) [Compound 4.49]		< 0.1 µM
COc1c(F)cc(-c2ccc(C3(C4CCC4)C(C#N)=C(N)Oc4[nH]nc(C)c43)s2)cc1F (centres unmarked) [Compound 4.50]		< 0.1 µM
Cc1n[nH]c2c1C(c1cc3ccccc3o1)(C1CCC1)C(C#N)=C(N)O2 (centres unmarked) [Compound 4.52]		< 0.1 µM
Cc1n[nH]c2c1C(c1ccc(-c3cccc(C(F)(F)F)c3)s1)(C1CC1)C(C#N)=C(N)O2 (centres unmarked) [Compound 4.53]		< 0.1 µM
N#CC1=C(N)Oc2[nH]ncc2C1(c1cc2ccccc2o1)C1CCC1 (centres unmarked) [Compound 4.54]		< 0.1 µM
Cc1n[nH]c2c1C(c1ccc(-c3ccccc3)s1)(C1CC1)C(C#N)=C(N)O2 (centres unmarked) [Compound 4.55]		< 0.1 µM
Cc1n[nH]c2c1C(c1ccc(-c3cccc(F)c3)s1)(C1CC1)C(C#N)=C(N)O2 (centres unmarked) [Compound 4.56]		< 0.1 µM
Cc1n[nH]c2c1C(c1cc(-c3cccc(F)c3)cs1)(C1CC1)C(C#N)=C(N)O2 (centres unmarked) [Compound 4.60]		< 0.1 µM
CCC1(c2cc(-c3cccs3)cs2)C(C#N)=C(N)Oc2[nH]nc(C)c21 (centres unmarked) [Compound 4.61]		< 0.1 µM
Cc1n[nH]c2c1C(c1cc3ccc(Cl)cc3s1)(C1CCC1)C(C#N)=C(N)O2 (centres unmarked) [Compound 4.63]		< 1 µM
